Laboratory results: the supplement of paper PMC10307832

What was measured:
Test in all cases: relative viability (nuclei count vs DMSO), 5 days (fraction); higher = more cells survive
[1] = compound: CC1=C(C(=NN1)C)CC2=C(C3=C(S2)N(C(=O)N(C3=O)C)CC(C)C)C(=O)N4C[C@@H](CO4)O + Cc1nc(NC(=O)N2CCC[C@H]2C(N)=O)sc1-c1ccnc(C(C)(C)C(F)(F)F)c1 [Alpelisib] (partner 2 µM)
In short: (§1)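 Lung cancer cell lines, seeded in 1536-well plates, were treated the following day by pin tool with a single drug or with five library-drug doses (not always all listed) in √10 steps on top of a fixed anchor-drug dose. Cells were fixed and nuclei stained in one step after 5 days, and nuclei were counted. Relative viability is the nuclei count for treated wells divided by that for vehicle wells, reported as medians of duplicate plates.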

IDH-C35 + Pemetrexed = compound: Cc1ccccc1C(C(=O)NC1CCCCC1)N(C(=O)Cn1ccnc1C)c1cccc(F)c1 [IDH-C35] + Nc1nc2[nH]cc(CCc3ccc(C(=O)N[C@@H](CCC(=O)O)C(=O)O)cc3)c2c(=O)[nH]1 [Pemetrexed] (partner 0.2 µM)
In short: as §1

[2] = compound: CC1=C(C(=NN1)C)CC2=C(C3=C(S2)N(C(=O)N(C3=O)C)CC(C)C)C(=O)N4C[C@@H](CO4)O
In short: (§2)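 MetaXpress counted nuclei in 4× images of lung cancer cell lines that had been fixed, permeabilised and Hoechst-stained in one step. Before that, cells in 1536-well plates were kept overnight at 37 °C, pinned with five √10-spaced library-drug doses on vehicle-anchored plates, and cultured 5 days without medium change. Viability takes treated-well nuclei over vehicle-well nuclei and uses the median across plates. Plates were accepted only at control CV below 25% and at least one doubling.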

IDH-C35 = compound: Cc1ccccc1C(C(=O)NC1CCCCC1)N(C(=O)Cn1ccnc1C)c1cccc(F)c1 [IDH-C35]
In short: as §2

| Cell Line | relative viability ([1]; first compound 0.0025 µM) | relative viability ([1]; first compound 0.007906 µM) | relative viability ([1]; first compound 0.025 µM) | relative viability ([1]; first compound 0.07906 µM) | relative viability ([1]; first compound 0.25 µM) | relative viability (IDH-C35 + Pemetrexed; first compound 0.08 µM) | relative viability (IDH-C35 + Pemetrexed; first compound 0.253 µM) | relative viability (IDH-C35 + Pemetrexed; first compound 0.8 µM) | relative viability (IDH-C35 + Pemetrexed; first compound 2.53 µM) | relative viability (IDH-C35 + Pemetrexed; first compound 8 µM) | relative viability ([2]; 0.0025 µM) | relative viability ([2]; 0.007906 µM) | relative viability ([2]; 0.025 µM) | relative viability ([2]; 0.07906 µM) | relative viability ([2]; 0.25 µM) | relative viability (IDH-C35; 0.08 µM) | relative viability (IDH-C35; 0.253 µM) | relative viability (IDH-C35; 0.8 µM) | relative viability (IDH-C35; 2.53 µM) | relative viability (IDH-C35; 8 µM) |
| --- | --- | --- | --- | --- | --- | --- | --- | --- | --- | --- | --- | --- | --- | --- | --- | --- | --- | --- | --- | --- |
| NCI-H838 | 1.05 | 1.05 | 0.989 | 0.967 | 0.974 | 0.241 | 0.248 | 0.272 | 0.255 | 0.235 | 0.992 | 0.979 | 0.876 | 0.84 | 0.856 | 1.07 | 0.935 | 0.978 | 1.01 | 0.981 |
| NCI-H1355 | 0.937 | 0.887 | 0.878 | 0.893 | 0.74 | 1.11 | 1.02 | 0.987 | 1 | 1 | 1.08 | 1.03 | 0.994 | 0.993 | 0.952 | 0.978 | 0.971 | 0.961 | 0.915 | 0.944 |
| NCI-H1395 | 1.04 | 0.898 | 1.06 | 0.983 | 1.01 | 0.869 | 0.882 | 0.866 | 0.989 | 0.925 | 0.962 | 0.841 | 0.713 | 0.795 | 0.719 | 0.942 | 0.866 | 0.929 | 0.877 | 0.882 |
| NCI-H1437 | 0.993 | 1 | 0.946 | 0.972 | 1.06 | 0.35 | 0.291 | 0.362 | 0.299 | 0.296 | 1.05 | 0.981 | 0.953 | 0.996 | 0.991 | 1.04 | 1.02 | 0.993 | 0.995 | 0.959 |
| NCI-H1563 | 1 | 0.847 | 0.954 | 0.959 | 0.893 | 0.827 | 0.803 | 0.652 | 0.854 | 0.613 | 1.06 | 1.06 | 0.97 | 1.07 | 0.973 | 0.972 | 0.974 | 1.01 | 0.981 | 0.957 |
| NCI-H1651 | 1.07 | 1.02 | 0.923 | 0.961 | 0.945 | 0.53 | 0.615 | 0.571 | 0.607 | 0.641 | 0.962 | 1.08 | 0.986 | 0.963 | 0.993 | 0.939 | 0.947 | 0.921 | 1 | 0.959 |
| NCI-H1666 | 1.06 | 1.01 | 1.02 | 1.13 | 0.953 | 0.881 | 0.825 | 0.822 | 0.874 | 0.718 | 1.09 | 0.97 | 1.01 | 0.983 | 1.02 | 1 | 0.956 | 0.965 | 1.06 | 1.04 |
| NCI-H1734 | 0.692 | 0.771 | 0.667 | 0.757 | 0.677 | 0.432 | 0.423 | 0.443 | 0.413 | 0.409 | 1.01 | 1.16 | 1.03 | 0.889 | 0.962 | 1.06 | 1.04 | 1 | 0.879 | 0.995 |
| NCI-H1755 | 0.963 | 1.03 | 0.898 | 0.849 | 1.02 | 0.455 | 0.748 | 0.458 | 0.411 | 0.473 | 1.03 | 1 | 1.03 | 0.989 | 1.03 | 1.05 | 0.961 | 0.968 | 1.03 | 1.01 |
| NCI-H1792 | 0.82 | 0.624 | 0.699 | 0.58 | 0.555 | 1.03 | 0.711 | 0.721 | 0.899 | 0.919 | 0.933 | 0.773 | 0.751 | 0.744 | 0.736 | 0.832 | 0.862 | 0.974 | 0.969 | 1.13 |
| NCI-H1793 | 0.724 | 0.826 | 0.546 | 0.554 | 0.742 | 0.759 | 0.783 | 0.804 | 1.04 | 0.854 | 0.94 | 0.995 | 1 | 0.886 | 0.686 | 0.961 | 0.874 | 0.844 | 0.859 | 0.994 |
| NCI-H1915 | 1.09 | 1.11 | 1.1 | 1.15 | 1.07 | 0.555 | 0.475 | 0.508 | 0.54 | 0.461 | 1.04 | 1.03 | 0.993 | 0.991 | 1.03 | 0.993 | 0.975 | 1.01 | 0.952 | 0.913 |
| NCI-H1944 | 0.858 | 0.858 | 0.921 | 0.847 | 0.761 | 0.591 | 0.67 | 0.562 | 0.612 | 0.568 | 1.04 | 1.1 | 0.982 | 0.933 | 0.944 | 1.01 | 1.07 | 0.927 | 0.941 | 0.976 |
| NCI-H1975 | 0.668 | 0.538 | 0.723 | 0.719 | 0.745 | 0.284 | 0.284 | 0.281 | 0.288 | 0.32 | 1.07 | 0.997 | 0.873 | 0.988 | 1.02 | 0.968 | 1.01 | 0.986 | 1.05 | 0.966 |
| NCI-H1993 | 0.69 | 0.608 | 0.719 | 0.615 | 0.722 | 0.527 | 0.628 | 0.677 | 0.598 | 0.637 | 1.05 | 0.91 | 0.963 | 0.843 | 0.884 | 0.843 | 0.955 | 0.891 | 1.02 | 0.955 |
| NCI-H2009 | 1.31 | 1.23 | 1.14 | 1.26 | 1.15 | 1.02 | 0.968 | 0.936 | 1.01 | 0.936 | 1.07 | 1.08 | 0.963 | 1.09 | 1.09 | 1.03 | 1.03 | 1.01 | 0.988 | 0.946 |
| NCI-H2023 | 0.621 | 0.635 | 0.593 | 0.58 | 0.622 | 0.262 | 0.246 | 0.245 | 0.241 | 0.2 | 1.03 | 1.09 | 0.934 | 0.976 | 1.03 | 0.981 | 1.08 | 0.959 | 0.981 | 0.994 |
| NCI-H2085 | 0.989 | 0.975 | 0.831 | 0.855 | 0.873 | 0.943 | 0.889 | 0.889 | 0.893 | 0.888 | 0.992 | 0.954 | 0.939 | 0.981 | 0.793 | 1.01 | 1 | 0.957 | 1.09 | 0.969 |
| NCI-H2087 | 0.952 | 1.03 | 1.12 | 1.31 | 1.18 | 0.732 | 0.592 | 0.678 | 0.647 | 0.697 | 1.05 | 1.13 | 0.951 | 0.92 | 1.26 | 1.2 | 1.07 | 0.945 | 0.898 | 0.931 |
| NCI-H2126 | 0.773 | 0.847 | 0.732 | 0.736 | 0.682 | 0.68 | 0.703 | 0.696 | 0.597 | 0.668 | 1.05 | 1.01 | 1 | 0.935 | 1.06 | 1.01 | 1.02 | 0.965 | 0.937 | 0.92 |
| NCI-H2170 | 0.918 | 0.868 | 0.705 | 0.819 | 0.786 | 0.277 | 0.341 | 0.265 | 0.267 | 0.262 | 0.973 | 1.02 | 0.966 | 0.906 | 0.965 | 0.971 | 0.948 | 1.02 | 0.867 | 0.983 |
| NCI-H2228 | 0.911 | 0.673 | 1.01 | 0.722 | 0.9 | 0.307 | 0.336 | 0.332 | 0.328 | 0.3 | 0.925 | 1.24 | 1.13 | 0.907 | 1.08 | 0.87 | 0.935 | 0.968 | 1.01 | 0.935 |
| NCI-H2347 | 1.16 | 1.01 | 1.11 | 0.964 | 0.964 | 0.424 | 0.418 | 0.452 | 0.417 | 0.43 | 1.11 | 1.2 | 0.949 | 0.983 | 1.04 | 1.04 | 1.06 | 0.937 | 1.02 | 0.997 |
| NCI-H2405 | 0.735 | 0.688 | – | 0.78 | 0.669 | 1.05 | 1.07 | 0.93 | 1.24 | 1.08 | 1.1 | 1.04 | 0.653 | 0.921 | 0.962 | 1.05 | 1 | 0.971 | 0.996 | 1.02 |
| NCI-H3122 | 0.813 | 0.816 | 0.788 | 0.783 | 0.706 | 0.203 | 0.182 | 0.203 | 0.207 | 0.2 | 1.01 | 0.971 | 0.99 | 1.01 | 1.03 | 0.999 | 1.02 | 1.01 | 0.985 | 0.973 |
| PC-3 [JPC-3] | 1.02 | 1.03 | 1 | 1.01 | 1.06 | 1.05 | 1.06 | 1.17 | 1.29 | 1.21 | 1.1 | 1.05 | 1.01 | 1.04 | 1.07 | 1.04 | 1 | 1.04 | 1.08 | 1.04 |
